For one experiment, the system named is −Bla K-12 E. coli. The experiment can be described thus: microbe, parasite or virus in culture. Type of experiment: cell-based, Escherichia coli. The settings on record: −Bla K-12 E. coli. An excerpt: (§1) Bacterial culture reagents including LB broth (Lennox), agar-agar, ampicillin, and ceftriaxone were purchased from Sigma Aldrich Corp. The Escherichia coli (E. coli) K12 strain HB101 and pGLO E. coli transformation kit purchased from Bio-Rad Laboratories Inc. HB101 was transformed with the bla gene via the pGLO plasmid. The bla gene encodes for a TEM-1 β-lactamase that imparts penicillin resistance to the mutant E. coli K-12 strain (+Bla). Strains E. coli UTI89, [27] pCOM-GFP-transformed E. coli UTI89 (pCOM-GFP), [28] and Methicillin-Resistant Staphylococcus aureus (MRSA) clone USA300 [29] have been previously described. The Extended-Spectrum β-Lactamase (ESBL) E. coli, Klebsiella pneumonia (Klebs), and Pseudomonas aeruginosa (Pseudo) strains were clinical isolates acquired deidentified from Duke Hospital and tested for antibiotic susceptibility in the Clinical Microbiology Laboratory using standard clinical susceptibility methods.
(§2) Cultures were incubated on LB (Lennox, Sigma) agar at 37° C. in ambient atmospheric composition. Before beginning an experiment, a single bacterial colony grown on LB agar was resuspended in 2 mL LB broth and incubated overnight to form a turbid cell suspension. The overnight culture was diluted 1:100 in LB and used immediately as the working culture. To assess the antibacterial activity of compounds, the working bacterial culture was aliquoted in a clear, flat-bottomed, 96-well polystyrene plate (Costar) and the compound of interest was added in 2-fold serial dilution from 500 to 1 μM. Plates were covered with a breathable sealing film (Aeroseal, Genesee Scientific) and incubated at 37° C. in ambient atmospheric composition with shaking at 200 rpm. Optical density at 600 nm was recorded after 4 h and 20 h for each well using a standard OD600 protocol with LB serving as the blank. The resulting dose-response curves were fit to a nonlinear regression in GraphPad Prism Version 6 to calculate the IC50 of DB4-51 in each strain.
(§3) The ability of DB4-162 to inhibit bacterial growth was assessed by a traditional broth microdilution method that assesses the turbidity of liquid cultures in the presence of varying concentrations of the compound. As described above for DB4-51, the antibacterial properties of the prochelator DB4-162 were assessed in non-pathogenic lab-strain HB101K-12 E. coli and compared to the pGLO-transfected mutant HB101K-12 E. coli that express β-lactamase. Clinically relevant pathogenic bacteria were also screened, including UTI89 E. coli, pCOM transfected UTI89 E. coli (pCOM), extended spectrum β-lactamase (ESBL) E. coli, methicillin-resistant Staphylococcus aureus (MRSA), and Klebsiella pneumonia (Klebs). In addition to being naturally resistant to many β-lactam antibiotics, MRSA can produce a number of β-lactamases. […] It should be noted that all of the bacteria tested are gram-negative except for gram-positive MRSA.
(§4) The goal of this screen was to calculate the IC50 of the prochelator in a series of pathogenic bacteria and compare these values to the IC50 of known antibiotics in those same strains to determine the relative effectiveness of DB4-162 against the drug-resistant and drug-susceptible bacteria in comparison to current antibiotic treatment options. Bacterial growth was monitored in LB broth at 37° C. in the presence and absence of DB4-162 for 20 hours. A concentration gradient of DB4-162 from 500 to 0 μM was used to screen all 7 strains of bacteria and the dose-response curves were fit to a […] to calculate the IC50 of DB4-162 in each strain. These IC50 values are an approximation of how effectively DB4-162 inhibits the growth of each bacterial strain in vitro.
(§5) IC50 values for ampicillin were calculated via broth microdilution in LB broth only. Values are listed as the mean followed by the 95% confidence interval about the mean. Mean and confidence intervals were calculated from a variable slope, nonlinear regression fit to the dose-response OD600 data. […]

For another experiment, the system named is ESBL E. coli. The experiment can be described thus: microbe, parasite or virus in culture. Type of experiment: cell-based, Escherichia coli. Conditions: for IC50: ESBL E. coli.
Excerpt: as §1, §2, §3, §4, §5

The test system of a further experiment is +Bla K-12 E. coli. In words: microbe, parasite or virus in culture. Type of experiment: cell-based, Escherichia coli.
Excerpt: as §1, §2, §3, §4, §5

In experiment [1] the test system is clinical isolates of Klebsiella pneumonia (Klebs). In words: Broth microdilution in Klebs clinical isolates. Type of experiment: cell-based. The settings on record: Klebsiella pneumoniae, LB broth.
Excerpt: as §1, §2

For experiment [2], the system named is Klebsiella pneumonia (Klebs). In words: Broth microdilution growth inhibition (OD600). Type of experiment: cell-based.
Excerpt: as §1, §2, §3, §4, §5

A further experiment relates to pCOM E. coli. In words: microbe, parasite or virus in culture. In kind it is cell-based, Escherichia coli. The settings on record: for IC50: Escherichia coli, pCOM E. coli.
Excerpt: as §1, §2, §3, §4, §5

Setting [3] is: Escherichia coli, +Bla K-12 E. coli, LB + 10 μM CuCl2.
The mark [4] stands for this setting: Escherichia coli, +Bla K-12 E. coli, LB + 500 μM BCS.
Where [5] appears, read: Escherichia coli, LB + 10 μM CuCl2, read-out: IC50.
Where [6] appears, read: Escherichia coli, LB + 500 μM BCS, read-out: IC50.
Setting [7] is: Escherichia coli, LB + 500 μM BCS.
Setting [8] is: Klebsiella pneumoniae, LB + 10 μM CuCl2.
Where [9] appears, read: Klebsiella pneumoniae, LB + 500 μM BCS.
Setting [10] is: Escherichia coli, +Bla K-12 E. coli, LB broth.
Setting [11] is: Klebsiella pneumoniae, LB broth.

Like-named read-outs stand apart in the source and are kept apart here.

In general, IC50 refers to the point on the concentration scale where inhibition reaches its midpoint.

With `CC1(C)S[C@@H]2[C@H](NC(=O)[C@H](N)c3ccccc3)C(=O)N2[C@H]1C(=O)O` [Ampicillin], the IC50 in the experiment on −Bla K-12 E. coli (LB broth, listed as ampicillin, read-out: IC50) was 8 µM; in the experiment on −Bla K-12 E. coli (LB broth, read-out: IC50), 0.008 µM; in the experiment with ESBL E. coli (LB broth), greater than 250 µM; in the experiment on +Bla K-12 E. coli (+Bla K-12 E. coli, LB broth), greater than 250 µM; in the experiment with +Bla K-12 E. coli (setting [3]), greater than 250 µM; in the experiment on +Bla K-12 E. coli (setting [4]), greater than 250 µM. Also, the IC50 in experiment [1] (Klebs Isolate 1) is 142 µM; in experiment [1] (Klebs Isolate 2), greater than 500 µM; in experiment [1] (Klebs Isolate 3), 55 µM; in experiment [1] (Klebs Isolate 4), greater than 500 µM; in experiment [1] (Klebs Isolate 5), 175 µM; in experiment [1] (Klebs Isolate 6), 118 µM. Also, the IC50 in experiment [1] (Klebs Isolate 7) was greater than 500 µM; in experiment [1] (Klebs Isolate 8) it was greater than 500 µM; in experiment [1] (Klebs Isolate 9), greater than 500 µM; in experiment [1] (Klebs Isolate 10), greater than 500 µM; in experiment [1] (Klebs Isolate 11), 251 µM; in experiment [1] (Klebs Isolate 12), 112 µM. Moreover, the IC50 was greater than 500 µM in experiment [1] (Klebs Isolate 13) and greater than 250 µM in experiment [2] (LB broth).
For `O=C(Cc1ccccc1)N[C@@H]1C(=O)N2C(C(=O)O)=C(CSc3cccc[n+]3[O-])CS[C@H]12` [DB4-51, 2-((((6R,7R)-2-carboxy-8-oxo-7-(2-phenylacetamido)-5-thia-1-azabicyclo[4.2.0]oct-2-en-3-yl)methyl)thio)pyridine 1-oxide], the “change in IC50 value depending on Cu status” value with pCOM E. coli (pCOM-GFP UTI89 E. coli, Cu replete vs Cu depleted) is given as 10 fold; in the experiment with +Bla K-12 E. coli (+Bla K-12 E. coli, Cu replete vs Cu depleted) it was “less than 4 fold”. The IC50 with −Bla K-12 E. coli (setting [5]) turned out to be 0.015 µM; in the experiment with −Bla K-12 E. coli (setting [6]), 0.038 µM; in the experiment with −Bla K-12 E. coli (Escherichia coli, pre-incubated with β-lactamase, read-out: IC50 after pre-incubation with β-lactamase), 9 µM; with ESBL E. coli (setting [7]), 0.017 µM; with +Bla K-12 E. coli (setting [4]), 0.051 µM; in the experiment on +Bla K-12 E. coli (Escherichia coli, read-out: IC50 after pre-incubation with β-lactamase, +Bla K-12 E. coli, pre-incubated with β-lactamase), 8 µM. Besides, the half-inhibitory concentration (IC50) in experiment [1] (Klebs Isolate 1) was 25 µM; in experiment [1] (Klebs Isolate 2), 45 µM; in experiment [1] (Klebs Isolate 3), 163 µM; in experiment [1] (Klebs Isolate 4), 133 µM; in experiment [1] (Klebs Isolate 5), 49 µM; in experiment [1] (Klebs Isolate 6), 47 µM. Further, the IC50 in experiment [1] (Klebs Isolate 7) is 9 µM; in experiment [1] (Klebs Isolate 8), 30 µM; in experiment [1] (Klebs Isolate 9), 10 µM; in experiment [1] (Klebs Isolate 10), 150 µM; in experiment [1] (Klebs Isolate 11) it was 34 µM; in experiment [1] (Klebs Isolate 12) it was 52 µM. Further, the IC50 is greater than 500 µM in experiment [1] (Klebs Isolate 13), 0.025 µM in experiment [2] (setting [8]) and 0.02 µM in experiment [2] (setting [9]).
`Cc1csc(=S)n1OCC1=C(C(=O)O)N2C(=O)[C@@H](NC(=O)Cc3ccccc3)[C@H]2SC1` [DB4-162, (6R,7R)-3-(((4-methyl-2-thioxothiazol-3(2H)-yl)oxy)methyl)-8-oxo-7-(2-phenylacetamido)-5-thia-1-azabicyclo[4.2.0]oct-2-ene-2-carboxylic acid]: the 50% inhibitory concentration (IC50) in the experiment with pCOM E. coli (LB + 10 μM CuCl2) came to 93 µM; with pCOM E. coli (LB + 500 μM BCS) it was 168 µM; in the experiment on pCOM E. coli (LB broth), 112 µM; in the experiment with −Bla K-12 E. coli (setting [5]) it was 39 µM; with −Bla K-12 E. coli (setting [6]), 54 µM; in the experiment on −Bla K-12 E. coli (Escherichia coli, LB broth, read-out: IC50) it was 227 µM. Moreover, the IC50 in the experiment on ESBL E. coli (Escherichia coli, LB + 10 μM CuCl2) turned out to be 21 µM; with ESBL E. coli (setting [7]) it was 50 µM; in the experiment on ESBL E. coli (Escherichia coli, LB broth), 22 µM; in the experiment on +Bla K-12 E. coli (setting [3]) it was 147 µM; with +Bla K-12 E. coli (setting [4]), 179 µM; in the experiment on +Bla K-12 E. coli (setting [10]), 143 µM. For the same molecule, the IC50 in experiment [2] (setting [8]) is 22 µM; in experiment [2] (setting [9]) it was 24 µM; in experiment [2] (setting [11]), 28 µM. In addition, in the experiment on ESBL E. coli (LB broth), the “IC50 in ESBL E. coli lower than in −Bla K-12 E. coli” value worked out at 90%.
For `[O-][n+]1ccccc1S` [PT, 2-mercaptopyridine N-oxide], the IC50 with pCOM E. coli (LB + 10 μM CuCl2) was 0.004 µM; in the experiment on pCOM E. coli (LB + 500 μM BCS) it was 0.007 µM; in the experiment on pCOM E. coli (LB broth), 0.002 µM; with ESBL E. coli (Escherichia coli, LB broth), 0.005 µM; in the experiment on +Bla K-12 E. coli (setting [4]), 0.019 µM; with +Bla K-12 E. coli (setting [10]), 0.006 µM. In addition, the IC50 in experiment [1] (Klebs Isolate 1) was 10 µM; in experiment [1] (Klebs Isolate 2), 5 µM; in experiment [1] (Klebs Isolate 3) it was 21 µM; in experiment [1] (Klebs Isolate 4), 9 µM; in experiment [1] (Klebs Isolate 5), 11 µM; in experiment [1] (Klebs Isolate 6) it was 6 µM. Also, the IC50 in experiment [1] (Klebs Isolate 7) came out at 10 µM; in experiment [1] (Klebs Isolate 8) it was 10 µM; in experiment [1] (Klebs Isolate 9), 9 µM; in experiment [1] (Klebs Isolate 10), 5 µM; in experiment [1] (Klebs Isolate 11), 6.5 µM; in experiment [1] (Klebs Isolate 12), 8 µM. Besides, the IC50 in experiment [1] (Klebs Isolate 13) was determined as 11 µM; in experiment [2] (setting [8]), 0.009 µM; in experiment [2] (setting [9]), 0.019 µM; in experiment [2] (setting [11]) it was 0.011 µM.

(Values after patent US10533018B2, “Antimicrobial prochelators to target drug-resistant bacteria and methods of making and using the same” (Duke University, priority 2015, dated 2020).)
